From patent US10933032B2, “Methods for the treatment of cancer using coenzyme Q10 combination therapies” (Berg LLC, priority 2013, dated 2021)
“Also recorded” adds a separate entry of the source.

Experiments:
[1] = test system: MIAPaCa-2 human pancreatic tumor cells; assay: Xenogeneic mouse human pancreatic cancer model, tumors harvested at mortality (size, weight, vasculature, palpation); format: in vivo, NOD scid gamma (NSG) mice
[2] = in vivo; conditions: rat, rats, given three times per week for 4 weeks
[3] = test system: MIAPaCa-2 pancreatic cancer cells; format: cell-based; conditions: CoQ10 (100 μM) pre-treatment (6 hours) and co-treatment regimen, FIGS. 11-14
[4] = test system: MDA-MB213 breast cancer cells; assay: Basal oxygen consumption rate (OCR) and extracellular acidification rate (ECAR); format: cell-based; conditions: 100 μM CoQ10 for 24 hours, FIG. 17
Protocol: (§1) Cells were treated with 100 μM CoQ10 for 24 hours.
(§2) Mitochondria represent a significant source of ROS which are known to participate in activation of cell death pathways.

[5] = test system: triple-negative breast cancer (TNBC) xenografts; assay: Triple-negative breast cancer (TNBC) xenograft, survival; format: in vivo, Mice; conditions: FIG. 21
[6] = test system: MIAPaCa-2 human pancreatic tumor cells; assay: Xenogeneic mouse human pancreatic cancer model, survival; format: in vivo, NOD scid gamma (NSG) mice; conditions: for Survival (prolongation of life) compared to untreated control: Example 1, Regimen 1, single agent: IV 4% Coenzyme Q10 50 mg/kg/day, or IV gemcitabine 150 mg/kg/week for 3 weeks with one week rest; for Survival, combination of CoQ10 and gemcitabine vs other groups: Example 1, Regimen 1: IV CoQ10 50 mg/kg/day + IV gemcitabine 150 mg/kg weekly for 3 weeks with one week rest
[7] = test system: cells; assay: Relative timing of CoQ10 and chemotherapeutic agents, cell killing in vitro (Example 7); format: cell-based; conditions: Example 7, written in present tense
Protocol: Using the methods in Example 6, cells are tested to determine if the relative timing of treatment of cells with CoQ10 and chemotherapeutic agents has an effect on cell killing, e.g., by promotion of apoptosis, induction of tumor lysis, inhibition of cell proliferation.
Briefly, cells are cultured as in Example 6. Cells are treated with CoQ10 and chemotherapeutic agents, either alone or in combination, or with appropriate vehicle controls. For the cells treated with both CoQ10 and chemotherapeutic agents, the cells are contacted with the CoQ10 and chemotherapeutic agents in various sequences. Various concentrations of CoQ10 and chemotherapeutic agents are used. Various treatment times are also used.
After treatment with CoQ10 and chemotherapy as indicated, cells are harvested and assayed for viability and apoptosis using the methods provided above. […] The metabolic switch effectuated by CoQ10 in cancer cells is associated with induction of a novel integrated signaling cross-talk involving TP53, Bcl-2/Bax and VEGF that results in the recapitulation of apoptotic pathways.

[8] = background statement; cited from earlier work
[9] = test system: non-tumorigenic control cells (MCF12A); assay: Reactive oxygen species (ROS) production; format: cell-based; conditions: 100 μM CoQ10 for 24 hours, FIG. 17
Protocol: as §1, §2

[10] = test system: MDA-MB213 breast cancer cells; assay: Reactive oxygen species (ROS) production; format: cell-based; conditions: 100 μM CoQ10 for 24 hours, FIG. 17
Protocol: as §1, §2

[11] = test system: MIAPaCa2 pancreatic cancer cells; assay: Proliferation assay (CFSE, flow cytometry); format: cell-based, human; conditions: MIAPaca-2; CoQ10 with gemcitabine; FIG. 13
Protocol: FIG. 13 is a graph showing results from proliferation assay in which MIAPaCa2 pancreatic cancer cells were treated with gemcitabine alone or in combination with CoQ10 prior to assessment of proliferation via flow cytometric analysis using the cell tracer dye CFSE which stains live cells. Values are normalized to the number of cells treated with neither CoQ10 nor the chemotherapeutic agent.
Without being bound by mechanism, it is proposed that CoQ10 effectuates a metabolic switch from glycolysis towards enhanced mitochondrial oxidative phosphorylation resulting in the recapitulation of apoptosis in cancer. The effects of CoQ10 were investigated to determine if pretreatment with CoQ10 results in mitochondrial priming, thereby augmenting the cytotoxic effect of standard of care chemotherapeutic agents. MIAPaCa-2 human pancreatic cancer cells were either (a) pretreated with CoQ10 prior to treatment with gemcitabine or (b) co-treated with CoQ10 and gemcitabine.

[12] = test system: MIAPaCa-2, SKOV-3, PC-3, HT-29, MCF7, MDA-MB231, SKBR-3, A549, Hep3B cancer cells; assay: In vitro CoQ10 monotherapy of various cancer cell types; format: cell-based; conditions: 100 μM CoQ10 for 48-72 hours; FIG. 16
Protocol: Cells were treated with 100 μM CoQ10 for 48-72 hours.

## COC1=C(OC)C(=O)C(C/C=C(\C)CC/C=C(\C)CC/C=C(\C)CC/C=C(\C)CC/C=C(\C)CC/C=C(\C)CC/C=C(\C)CC/C=C(\C)CC/C=C(\C)CCC=C(C)C)=C(C)C1=O [CoQ10, Coenzyme Q10]
[1]; Example 1, single agents: Group 2 Coenzyme Q10 IV 50 mg/kg/day, Group 3 gemcitabine 150 mg/kg/week, FIG. 2
  Growth of pancreatic tumors (tumor size at time of death) vs control: inhibited the growth of pancreatic tumors; also recorded: inhibits pancreatic tumor growth
[1]; Example 1, intravenous Coenzyme Q10 vs untreated control mice, not quantified
  Tumor vasculature (histological analysis): decreased tumor vasculature; also recorded: decrease in the amount of vasculature in pancreatic tumors
[1]; Example 1, vs Coenzyme Q10 alone or gemcitabine alone, FIG. 3
  Tumor weight / tumor growth, combination of Coenzyme Q10 and gemcitabine (Group 4): significantly smaller than tumors from mice treated with Coenzyme Q10 alone; also recorded: more effective at inhibiting the growth of pancreatic tumors in mice than treatment with either agent alone
[1]; Example 1, vs control group and gemcitabine treated group, FIG. 3
  Tumor weight at mortality, Coenzyme Q10 alone (Group 2): significantly smaller than tumors from mice in the control group
[2]
  MTD at 4 weeks: 250 mg/kg
[3]
  Cytotoxic potential of gemcitabine: augmented the cytotoxic potential of gemcitabine
[4]
  Ratio of OCR to ECAR: higher ratio of OCR to ECAR
[5]; 75 mg/kg CoQ10, TAC: 5 mg/kg docetaxel, 1 mg/mg doxorubicin, 35 mg/kg cyclophosphamide every three weeks for six cycles
  Survival, CoQ10 in combination with the TAC regimen: significantly improved survival
[5]; 75 mg/kg body weight CoQ10 (BPM 31510)
  Survival, CoQ10 alone: significantly improved survival
[6]; 50 mg/kg CoQ10, FIG. 30
  Survival rate (survival probability) at 300 days: lowest survival rate
[6]; 100 mg/kg CoQ10, FIG. 30
  Survival rate (survival probability) at 300 days: between the other two treatment groups
[6]; 200 mg/kg CoQ10, FIG. 30
  Survival rate (survival probability) at 300 days: highest survival rate
[6]; CoQ10 200 mg/kg, vs gemcitabine+CoQ10 from the start, gemcitabine or CoQ10 alone, FIG. 31
  Survival, pretreatment with CoQ10 for sixty days followed by gemcitabine+CoQ10: improved survival in comparison to treatment with gemcitabine+CoQ10 from the start of the treatment regimen; also recorded: improved survival outcomes
[6]; CoQ10 60 days prior to start of gemcitabine and continuing with CoQ10, FIG. 31
  Survival rate (survival probability) at 200 days: highest survival rate
[6]; CoQ10 alone or CoQ10 in combination with doxorubicin, vs gemcitabine or doxorubicin
  Responses associated with favorable therapeutic endpoints, most notably an increase in survival: more effective than gemcitabine or doxorubicin
[6]; CoQ10 from the start (alone), FIG. 31
  Survival rate (survival probability) at 200 days: next highest survival rate
[6]; FIG. 1
  Survival (prolongation of life) compared to untreated control: prolongation of life as compared to untreated control
  Survival, combination of CoQ10 and gemcitabine vs other groups: prolonged survival and long-term remission that was statistically significant compared to other groups
[6]; FIG. 1, listed as Coenzyme Q10
  Survival (prolongation of life) compared to untreated control: increases survival time of the mice
  Survival, combination of CoQ10 and gemcitabine vs other groups: more effective at increasing survival time in mice bearing pancreatic tumors than treatment with either agent alone
[6]; Example 1, Regimen 1: IV CoQ10 50 mg/kg/day vs gemcitabine 150 mg/kg/week, FIG. 1
  Impact on survival, CoQ10 alone vs gemcitabine alone: significantly greater impact on survival than gemcitabine alone
[6]; Example 2, Regimen 2: 4% CoQ10 intravenous formulation 50 mg/kg intraperitoneally twice daily, 3 weeks with one week rest, vs untreated or gemcitabine alone, FIG. 4
  Survival, CoQ10 alone: increase in survival
[6]; Example 2, Regimen 2: CoQ10 50 mg/kg IP twice daily + gemcitabine 150 mg/kg once per week, vs untreated or gemcitabine alone, FIG. 4
  Survival, CoQ10 in combination with gemcitabine: increase in survival
[6]; Example 4, once daily dosing with intravenous CoQ10, FIG. 7
  Survival (viability, mortality), CoQ10 in combination with doxorubicin vs doxorubicin alone: decreased mortality rates
[6]; Example 5, Regimen 3: IP 4% CoQ10 intravenous formulation 50 or 75 mg/kg/dose, 3 times daily, FIG. 8
  Survival, Coenzyme Q10 alone vs control animals: significantly increased survival as compared to control animals
[6]; Example 5, Regimen 3: IP CoQ10 50 or 75 mg/kg/dose 3 times daily + IV gemcitabine 150 mg/kg weekly for 3 weeks with one week rest, FIG. 8
  Survival, combination of Coenzyme Q10 and gemcitabine vs same dose of Coenzyme Q10 alone: increased survival as compared to mice treated with the same dose of Coenzyme Q10 alone
[6]; Example 11, IP CoQ10 75 mg/kg/dose 3 times daily, gemcitabine 150 mg/kg weekly initiated 1-3 weeks later, early time points, FIG. 15
  Survival, pretreatment with CoQ10 followed by gemcitabine vs co-treatment regimen: improved survival
[6]; Example 11, latest time point, FIG. 15
  Survival, CoQ10 + gemcitabine vs untreated control: increases the survival in a statistically significant manner as compared to untreated control
[6]; Example 17, Regimen 3: 50 mg/kg or 75 mg/kg, FIG. 29
  Survival, dose dependence: dose dependent increase in survival
[6]; Example 17, Regimen 3, FIG. 29
  Effect on survival when combined with gemcitabine: additive effect to gemcitabine
[6]; Example 17, best outcomes at 200 mg/kg, FIG. 30
  Survival rates, continuous infusion of CoQ10 vs three doses (50 mg/kg or 75 mg/kg): significantly improved survival rates compared to three doses
[6]; FIG. 30
  Survival, continuous infusion of CoQ10 at 200 mg/kg vs 50 mg/kg: significantly improved survival in comparison to 50 mg/kg CoQ10
[6]; gemcitabine and CoQ10 from the start, FIG. 31
  Survival rate (survival probability) at 200 days: next highest survival rate
[7]
  Cell killing, pretreatment with CoQ10, discontinuation, then chemotherapy: also effective in cell killing
  Cell killing, pretreatment with CoQ10 followed by concurrent CoQ10 and chemotherapy: effective in cell killing
  Cell killing, pretreatment with CoQ10 prior to chemotherapy: more effective in cell killing than co-treatment with CoQ10 and chemotherapy or treatment with CoQ10 after chemotherapy
[8]
  Lipophilicity: very lipophilic
  Solubility in water: insoluble in water
[9]
  ROS production: increased ROS production
[10]
  ROS production: increased ROS production
[11]
  Proliferation vs gemcitabine alone: decreased proliferation
[12]
  Cell death in cancer cells: increased cell death
